In the assay the test system is CD2F1 mice, AMSA-resistant P388 leukemia ip, median survival T/C. Briefly: NCI In Vivo Anticancer Drug Screen. Data for tumor model P388 Leukemia resistant to AMSA; NSC 249992 (intraperitoneal) in CD2F1 (CDF1) mice. Particulars: endpoint: median survival time, higher = longer survival. The protocol:
The antitumor activity of compounds was measured in mice bearing transplantable tumors. Survival or tumor size were measured and the results are expressed as the measurement made in the treated group (T) divided by the measurement made in the vehicle treated control group (C). The tumor model used in this assay is P388 Leukemia resistant to AMSA; NSC 249992 (intraperitoneal) in CD2F1 (CDF1) mice

This passage reports T/C results from PubChem BioAssay AID324 (DTP/NCI, 2004).

Each structure is given as a SMILES string. Where “and” joins values, the source holds several entries; their conditions need not be identical. Equal entries are not always repeated. Toxic doses and inconclusive results are not listed.

Turning to `CC[C@@]1(O)C[C@H](OC2CC(N(C)C)C(OC3CC(O)C(OC4CCC(=O)C(C)O4)C(C)O3)C(C)O2)c2c(cc3c(c2O)C(=O)c2c(O)ccc(O)c2C3=O)[C@H]1C(=O)OC` (stereo partly specified), the T/C is 153 % of control and 158 % of control (dose: 4.32 mg/kg/injection, schedule: Q04DX003 (ip), vehicle: water); 123 % of control and 219 % of control (dose: 7.2 mg/kg/injection, schedule: Q04DX003 (ip), vehicle: water).

Consider `CCCCC(=O)OCC(=O)[C@]1(O)Cc2c(O)c3c(c(O)c2[C@@H](OC2CC(NC(=O)C(F)(F)F)C(O)C(C)O2)C1)C(=O)c1c(OC)cccc1C3=O` (stereo partly specified), for which the T/C is 106 % of control (dose: 19.4 mg/kg/injection, schedule: Q04DX003 (ip), vehicle: clinical formulation); 117 % of control (dose: 32.4 mg/kg/injection, schedule: Q04DX003 (ip), vehicle: clinical formulation); 120 % of control (dose: 54.0 mg/kg/injection, schedule: Q04DX003 (ip), vehicle: clinical formulation); 113 % of control (dose: 90.0 mg/kg/injection, schedule: Q04DX003 (ip), vehicle: clinical formulation).

Turning to `COC(=O)[C@@H]1c2cc3c(c(O)c2[C@@H](OC2OC(C)C(OC)C(C)(OC)C2OC)C[C@]1(C)O)C(=O)c1c(O)cc2c(c1C3=O)O[C@H]1O[C@]2(C)[C@H](O)[C@@H](N(C)C)[C@@H]1O` (stereo partly specified), the T/C by setting is: (dose: 0.43 mg/kg/injection, schedule: Q04DX003 (ip), vehicle: water) 108 % of control; (dose: 0.52 mg/kg/injection, schedule: Q04DX003 (ip), vehicle: clinical formulation) 107 % of control; (dose: 0.72 mg/kg/injection, schedule: Q04DX003 (ip), vehicle: water) 113 % of control; (dose: 0.86 mg/kg/injection, schedule: Q04DX003 (ip), vehicle: clinical formulation) 114 % of control; (dose: 1.2 mg/kg/injection, schedule: Q04DX003 (ip), vehicle: water) 107 % of control; (dose: 1.44 mg/kg/injection, schedule: Q04DX003 (ip), vehicle: clinical formulation) 112 % of control. Besides, the T/C by setting is: (dose: 2.0 mg/kg/injection, schedule: Q04DX003 (ip), vehicle: water) 118 % of control; (dose: 2.4 mg/kg/injection, schedule: Q04DX003 (ip), vehicle: clinical formulation) 110 % of control; (dose: 3.33 mg/kg/injection, schedule: Q04DX003 (ip), vehicle: water) 97 % of control.

For the compound `COc1cccc2c1C(=O)c1c(O)c3c(c(O)c1C2=O)C[C@@](O)(C(=O)CO)C[C@@H]3OC1CC(NCc2ccccc2)C(O)C(C)O1` (stereo partly specified), the T/C is, setting by setting: (dose: 3.89 mg/kg/injection, schedule: Q04DX003 (ip), vehicle: water) 123 % of control; (dose: 30.0 mg/kg/injection, schedule: Q04DX003 (ip), vehicle: water) 100 % of control.

`CN(Cc1cnc2nc(N)nc(N)c2n1)c1ccc(C(=O)N[C@@H](CCC(=O)O)C(=O)O)cc1`: the T/C runs as follows: (dose: 3.0 mg/kg/injection, schedule: Q01DX005 (ip), vehicle: sodium bicarbonate) 173 % of control; (dose: 3.5 mg/kg/injection, schedule: Q01DX005 (ip), vehicle: sodium bicarbonate) 171 % of control; (dose: 4.0 mg/kg/injection, schedule: Q01DX005 (ip), vehicle: sodium bicarbonate) 164 % of control; (dose: 4.5 mg/kg/injection, schedule: Q01DX005 (ip), vehicle: sodium bicarbonate) 177 % of control; (dose: 6.48 mg/kg/injection, schedule: Q04DX003 (ip), vehicle: sodium bicarbonate) 165 % of control; (dose: 10.8 mg/kg/injection, schedule: Q04DX003 (ip), vehicle: sodium bicarbonate) 180 % of control. Besides, the T/C was 196 % of control (dose: 18.0 mg/kg/injection, schedule: Q04DX003 (ip), vehicle: sodium bicarbonate); 114 % of control (dose: 30.0 mg/kg/injection, schedule: Q04DX003 (ip), vehicle: sodium bicarbonate); 98 % of control (dose: 50.0 mg/kg/injection, schedule: Q04DX003 (ip), vehicle: sodium bicarbonate).

For `COc1cccc2c1C(=N)c1c(O)c3c(c(O)c1C2=O)C[C@@](O)(C(C)=O)C[C@@H]3OC1CC(N)C(O)C(C)O1` (stereo partly specified), the T/C was 98 % of control (dose: 1.94 mg/kg/injection, schedule: Q04DX003 (ip), vehicle: water); 98 % of control (dose: 3.24 mg/kg/injection, schedule: Q04DX003 (ip), vehicle: water); 97 % of control (dose: 5.4 mg/kg/injection, schedule: Q04DX003 (ip), vehicle: water); 100 % of control (dose: 9.0 mg/kg/injection, schedule: Q04DX003 (ip), vehicle: water); 100 % of control (dose: 15.0 mg/kg/injection, schedule: Q04DX003 (ip), vehicle: water).
